Measurements taken from US20230116972A1, “CD38 MODULATORS AND METHODS OF USE THEREOF” (Cytokinetics, Inc., priority 2021, published 2023).
Like-named read-outs stand apart in the source and are kept apart here.

Experiments:
Type in all cases: in vitro ADME
[1] = molecular target: T1, CYP3A4 (Homo sapiens, UniProt P08684); test: direct inhibition of CYP450 in human liver microsomes (midazolam and testosterone probes)
T1 construct: from tissue; host or cells: human liver microsomes (pooled in the time-dependent assay)
Description: (§1) Direct inhibition: […] A Perspective of the Pharmaceutical Research and Manufacturers of America”, Drug Metabolism and Disposition, 37 (7): 1355, 2009). For 3A4, the % activity was measured using both midazolam and testosterone as probes. Each compound at 3, 10, and 50 μM was incubated with HLM, NADPH and CYP isoenzyme specific probe substrates at 37° C. Inhibition of the probe substrate metabolism was quantified using LC/MS/MS. […] Known chemical inhibitors specific for the individual CYP isoenzymes were evaluated in parallel as positive controls and these compounds produced CYP inhibition consistent with published results (Walsky & Obach RS. “Validated assays for human cytochrome P450 activities”. Drug Metab Dispos. 32(6):647-60, 2004). Note that, in Tables 6 and 7, the “Compound No” corresponds to the compound numbers in Table 1.

[2] = molecular target: T2, CYP2C19 (Homo sapiens, UniProt P33261); test: direct inhibition of CYP450 in human liver microsomes; details: for activity at 3 µM / activity at 10 µM / activity at 50 µM: % of non-inhibited control, read-out: CYP2C19 T0 % activity; for IC50: estimated from 3, 10, 50 uM, read-out: CYP2C19 T0 estimated IC50
T2 construct: from tissue; host or cells: human liver microsomes (pooled in the time-dependent assay)
Description: as §1

[3] = molecular target: T3, CYP2B6 (Homo sapiens, UniProt P20813); test: as above; details: for activity at 3 µM / activity at 10 µM / activity at 50 µM: % of non-inhibited control, read-out: CYP2B6 T0 % activity; for IC50: estimated from 3, 10, 50 uM, read-out: CYP2B6 T0 estimated IC50
T3 construct: from tissue; host or cells: human liver microsomes (pooled in the time-dependent assay)
T3 sequence (P20813 1-491): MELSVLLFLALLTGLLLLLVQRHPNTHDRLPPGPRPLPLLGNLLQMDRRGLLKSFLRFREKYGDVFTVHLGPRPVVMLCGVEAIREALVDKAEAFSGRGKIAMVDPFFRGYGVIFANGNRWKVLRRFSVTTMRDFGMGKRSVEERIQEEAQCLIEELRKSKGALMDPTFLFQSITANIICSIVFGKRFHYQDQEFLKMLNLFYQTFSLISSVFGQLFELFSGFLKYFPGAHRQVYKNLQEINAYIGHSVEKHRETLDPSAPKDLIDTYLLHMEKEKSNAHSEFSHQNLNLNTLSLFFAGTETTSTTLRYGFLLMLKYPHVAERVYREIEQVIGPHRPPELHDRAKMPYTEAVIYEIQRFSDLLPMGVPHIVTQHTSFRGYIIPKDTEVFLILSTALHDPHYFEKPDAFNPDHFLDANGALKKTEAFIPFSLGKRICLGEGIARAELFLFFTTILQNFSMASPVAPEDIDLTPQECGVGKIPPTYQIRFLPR
Description: as §1

[4] = molecular target: T4, CYP2C9 (Homo sapiens, UniProt P11712); test: as above; details: for activity at 3 µM / activity at 10 µM / activity at 50 µM: % of non-inhibited control, read-out: CYP2C9 T0 % activity; for IC50: estimated from 3, 10, 50 uM, read-out: CYP2C9 T0 estimated IC50
T4 construct: from tissue; host or cells: human liver microsomes (pooled in the time-dependent assay)
Description: as §1

[5] = molecular target: T5, CYP2D6 (Homo sapiens, UniProt P10635); test: as above; details: for activity at 3 µM / activity at 10 µM / activity at 50 µM: % of non-inhibited control, read-out: CYP2D6 T0 % activity; for IC50: estimated from 3, 10, 50 uM, read-out: CYP2D6 T0 estimated IC50
T5 construct: from tissue; host or cells: human liver microsomes (pooled in the time-dependent assay)
Description: as §1

[6] = molecular target: T6, CYP1A2 (Homo sapiens, UniProt P05177); test: as above
T6 construct: from tissue; host or cells: human liver microsomes (pooled in the time-dependent assay)
T6 sequence (P05177 1-516): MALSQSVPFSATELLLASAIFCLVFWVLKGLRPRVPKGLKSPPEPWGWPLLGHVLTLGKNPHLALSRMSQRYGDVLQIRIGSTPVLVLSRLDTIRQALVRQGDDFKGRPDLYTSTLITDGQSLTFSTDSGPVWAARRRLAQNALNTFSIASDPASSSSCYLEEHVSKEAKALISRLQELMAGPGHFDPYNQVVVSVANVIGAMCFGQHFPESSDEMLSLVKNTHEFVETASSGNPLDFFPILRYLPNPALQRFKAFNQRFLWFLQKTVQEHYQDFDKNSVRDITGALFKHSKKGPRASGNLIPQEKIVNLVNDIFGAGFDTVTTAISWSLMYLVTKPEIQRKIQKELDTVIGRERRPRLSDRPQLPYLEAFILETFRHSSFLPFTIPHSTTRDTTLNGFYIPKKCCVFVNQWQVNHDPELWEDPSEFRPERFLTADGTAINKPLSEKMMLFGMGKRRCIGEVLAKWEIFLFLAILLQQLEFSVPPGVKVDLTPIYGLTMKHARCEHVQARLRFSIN
Description: as §1

[7] = midazolam probe, read-out: CYP3A4-M T0 % activity
[8] = testosterone probe, read-out: CYP3A4-T T0 % activity
[9] = midazolam probe, read-out: CYP3A4-M T0 estimated IC50
[10] = testosterone probe, read-out: CYP3A4-T T0 estimated IC50

T5 sequence (P10635 whole entry): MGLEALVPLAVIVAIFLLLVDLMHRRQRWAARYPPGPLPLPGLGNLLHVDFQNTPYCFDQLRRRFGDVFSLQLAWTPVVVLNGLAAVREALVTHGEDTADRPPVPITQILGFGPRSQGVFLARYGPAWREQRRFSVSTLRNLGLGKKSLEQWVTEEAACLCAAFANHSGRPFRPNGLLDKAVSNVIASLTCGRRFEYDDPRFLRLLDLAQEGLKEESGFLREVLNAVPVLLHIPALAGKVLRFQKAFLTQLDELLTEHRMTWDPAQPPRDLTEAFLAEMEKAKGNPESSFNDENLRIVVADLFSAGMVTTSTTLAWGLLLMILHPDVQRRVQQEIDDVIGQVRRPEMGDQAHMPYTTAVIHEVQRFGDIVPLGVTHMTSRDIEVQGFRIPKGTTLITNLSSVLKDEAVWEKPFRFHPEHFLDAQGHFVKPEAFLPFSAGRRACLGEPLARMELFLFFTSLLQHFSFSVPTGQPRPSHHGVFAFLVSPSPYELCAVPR
T2 sequence (P33261 whole entry): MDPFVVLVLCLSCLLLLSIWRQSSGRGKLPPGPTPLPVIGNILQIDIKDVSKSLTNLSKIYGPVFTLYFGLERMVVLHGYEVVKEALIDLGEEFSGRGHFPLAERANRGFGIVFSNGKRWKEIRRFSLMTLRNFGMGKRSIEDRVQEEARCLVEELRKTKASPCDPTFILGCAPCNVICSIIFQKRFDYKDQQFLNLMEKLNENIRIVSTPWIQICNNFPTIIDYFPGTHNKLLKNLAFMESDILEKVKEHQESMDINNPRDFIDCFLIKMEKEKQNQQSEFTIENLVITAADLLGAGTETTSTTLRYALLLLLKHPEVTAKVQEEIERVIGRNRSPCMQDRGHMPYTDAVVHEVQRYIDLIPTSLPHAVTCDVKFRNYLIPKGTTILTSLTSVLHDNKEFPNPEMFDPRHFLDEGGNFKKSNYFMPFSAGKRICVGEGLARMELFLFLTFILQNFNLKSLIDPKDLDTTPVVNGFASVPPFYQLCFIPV
T4 sequence (P11712 whole entry): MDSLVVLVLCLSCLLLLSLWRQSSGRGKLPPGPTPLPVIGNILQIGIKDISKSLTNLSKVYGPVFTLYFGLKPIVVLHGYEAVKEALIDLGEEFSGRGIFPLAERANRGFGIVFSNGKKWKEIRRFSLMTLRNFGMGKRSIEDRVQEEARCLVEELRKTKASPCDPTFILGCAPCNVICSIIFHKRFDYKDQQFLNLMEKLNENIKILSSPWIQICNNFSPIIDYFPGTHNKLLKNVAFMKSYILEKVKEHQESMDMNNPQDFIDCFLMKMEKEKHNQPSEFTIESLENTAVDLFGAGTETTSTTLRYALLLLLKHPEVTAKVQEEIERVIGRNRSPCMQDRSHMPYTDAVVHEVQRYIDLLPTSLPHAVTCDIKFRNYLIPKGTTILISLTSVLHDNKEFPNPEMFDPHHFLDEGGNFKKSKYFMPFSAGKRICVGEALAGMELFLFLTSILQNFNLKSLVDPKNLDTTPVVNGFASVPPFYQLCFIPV
T1 sequence (P08684 whole entry): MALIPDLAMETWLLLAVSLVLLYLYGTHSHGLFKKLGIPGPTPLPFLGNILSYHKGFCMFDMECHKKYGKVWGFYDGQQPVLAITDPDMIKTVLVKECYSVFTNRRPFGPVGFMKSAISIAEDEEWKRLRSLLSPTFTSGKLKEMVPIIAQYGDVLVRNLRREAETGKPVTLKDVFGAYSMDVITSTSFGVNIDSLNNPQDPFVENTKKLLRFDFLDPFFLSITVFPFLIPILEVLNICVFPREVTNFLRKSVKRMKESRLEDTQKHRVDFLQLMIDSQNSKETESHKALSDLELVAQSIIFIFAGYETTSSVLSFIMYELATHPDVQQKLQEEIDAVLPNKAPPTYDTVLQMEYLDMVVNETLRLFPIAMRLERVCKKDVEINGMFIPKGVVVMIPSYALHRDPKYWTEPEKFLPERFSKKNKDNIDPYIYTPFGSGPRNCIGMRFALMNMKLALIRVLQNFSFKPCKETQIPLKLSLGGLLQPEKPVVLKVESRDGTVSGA

| SMILES | activity at 3 µM [1, 7] [%] | activity at 3 µM [1, 8] [%] | activity at 10 µM [1, 7] [%] | activity at 10 µM [1, 8] [%] | activity at 50 µM [1, 7] [%] | activity at 50 µM [1, 8] [%] | IC50 [1, 9] [µM] | IC50 [1, 10] [µM] | activity at 3 µM [2] [%] | activity at 10 µM [2] [%] | activity at 50 µM [2] [%] | IC50 [2] [µM] | activity at 3 µM [3] [%] | activity at 10 µM [3] [%] | activity at 50 µM [3] [%] | IC50 [3] [µM] | activity at 3 µM [4] [%] | activity at 10 µM [4] [%] | activity at 50 µM [4] [%] | IC50 [4] [µM] | other results |
| --- | --- | --- | --- | --- | --- | --- | --- | --- | --- | --- | --- | --- | --- | --- | --- | --- | --- | --- | --- | --- | --- |
| [2H]c1nc([2H])n(-c2nc(C)cc(C(=O)N[C@H]3CC[C@H](OCCOC)CC3)n2)c1[2H] [Comparator Compound A, reference compound] | 98 | 100 | 99 | 97 | 91 | 103 | > 50 | > 50 | 77 | 49 | 17 | ~10 | 103 | 98 | 57 | > 50 | 88 | 64 | 24 | < 50 | activity at 3 µM [5]: 95%; activity at 10 µM [5]: 82%; activity at 50 µM [5]: 42%; IC50 [5]: < 50 µM; activity at 3 µM ([6]; 3 uM, human liver microsomes, % of non-inhibited control, read-out: CYP1A2 T0 % activity): 98%; activity at 10 µM ([6]; 10 uM, human liver microsomes, % of non-inhibited control, read-out: CYP1A2 T0 % activity): 98%; activity at 50 µM ([6]; 50 uM, human liver microsomes, % of non-inhibited control, read-out: CYP1A2 T0 % activity): 92%; IC50 ([6]; human liver microsomes, estimated from 3, 10, 50 uM, read-out: CYP1A2 T0 estimated IC50): > 50 µM |
| CO[C@H]1CC[C@H](NC(=O)c2nccc(-n3ccnc3)n2)CC1 [Compound 145, 4-(1H-Imidazol-1-yl)-N-((1r,4r)-4-methoxycyclohexyl)pyrimidine-2-carboxamide] | 99 | 96 | 89 | 98 | 75 | 95 | > 50 | > 50 | 92 | 93 | 89 | > 50 | 101 | 98 | 99 | > 50 | 97 | 99 | 96 | > 50 | activity at 3 µM [5]: 93%; activity at 10 µM [5]: 73%; activity at 50 µM [5]: 47%; IC50 [5]: < 50 µM; IC50 [6]: > 50 µM; activity at 3 µM ([6]; human, microsomes): 94%; activity at 10 µM ([6]; human, microsomes): 92%; activity at 50 µM ([6]; human, microsomes): 79% |
